In article PMC9047634 (RSC Advances, 2019):

Target: chorismate mutase (CM) (Mycobacterium tuberculosis, UniProt P9WIB9)
Test: biochemical
Settings: read-out: % Inhibition @ 30 μM ^a

Sequence of chorismate mutase (CM) (P9WIB9 34-199): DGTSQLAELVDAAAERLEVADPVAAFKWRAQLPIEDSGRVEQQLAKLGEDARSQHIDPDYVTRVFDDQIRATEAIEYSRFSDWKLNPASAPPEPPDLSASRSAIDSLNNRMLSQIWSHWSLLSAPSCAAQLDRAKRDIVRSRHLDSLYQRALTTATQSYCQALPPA

COc1ccc(CCNc2c([N+](=O)[O-])cc(C(=O)O)cc2S(N)(=O)=O)cc1OC [G, 4-(3,4-dimethoxyphenethylamino)-3-nitro-5-sulfamoylbenzoic acid] showed an inhibition at 30 µM of 57%.
